The values below come from a melting point compilation (Tetko et al.; mined from patent text by program, amines drawn as free bases though some values may be those of a salt).

Some results are limits rather than exact numbers.

`CCOC(=O)c1cc(C(C)C)n(-c2ccc(Cl)cc2Cl)n1`: the melting point was in the range of 93 to 95 °C. Next, `O=c1[nH]c(=Cc2ccc(OCc3ccncc3)cn2)c(=O)[nH]c1=Cc1ccccc1`: 254 to 255 °C. Next, `COc1ccc(-c2cnc(-c3ccc(Cl)cc3)nc2-c2ccc(OC)cc2)cc1`: 151 to 153 °C; `CCN1CC(NC(=O)c2ccc(F)cc2)CN1CC`: 114 to 116 °C; `CC(C)(C)c1ccc(S(=O)(=O)NCCCCOc2ccc(-n3ccnc3)cc2)cc1`: 138 to 140 °C. Next, `COc1ccc(S(=O)(=O)N(Cc2cccnc2)C(C(N)=O)C(C)C)cc1` (configuration not stated): 45 to 53 °C. With `O=C(O)CCC(=O)c1cccc(S(=O)(=O)Cl)c1`, the melting point is 73 to 78 °C.

Compound `O=C1NCCCCC1c1cccc(OCc2ccccc2)c1` (configuration not stated) came in with a melting point of 119 to 122 °C. Next, `O=S1(=O)NCN(C2CCCCCC2)c2ccc(Cl)cc21`: 216 to 218 °C; `COc1cc(O)c2c(=O)c(OC)c(-c3ccc(N)cc3)oc2c1`: 221 °C. Under `Cc1cc(Oc2cccc(C(=O)O)n2)n(C)n1` stands 182 °C.

`CNC(=O)C(NC(=O)c1ccc(F)cc1C(F)(F)F)C(O)CO` (configuration not stated): the melting point is 163 °C. Next, `CCCC(=O)c1cc2c(s1)CCC1CC(=O)N(c3ccc(Cl)cc3)N=C21` (configuration not stated): 157 to 159 °C; `CC(=O)c1cc(-c2ccncc2)sc1Oc1cc(F)ccc1F`: 119 to 121 °C. Under `O=C1CCC(N2Cc3c(OCc4ccc5ncccc5c4)cccc3C2=O)C(=O)N1` (configuration not stated) stands 267 to 269 °C; under `CC(=O)c1ccc(OCCCCl)c(C)c1`, 41.5 to 42.5 °C.

Take `Cc1nc(-n2cccc(OCc3ccccc3)c2=O)sc1C(=O)NCc1ccccc1`: the melting point is 198 to 201 °C. Take `N#CC1=C(Nc2ccccc2N)CSC1`: the melting point came out at 163 °C. Next, `CCN(CC)c1ccc(/C=C/c2c(F)cccc2F)cc1`: 70 to 71 °C; `O=C(/C=C/c1cccc(S(=O)(=O)N2CCN(c3cccc([N+](=O)[O-])c3)CC2)c1)NO`: 162 °C. `COC1OC(=O)c2cccc([N+](=O)[O-])c21` (configuration not stated): the melting point was in the range of 115 to 118 °C.

In turn, `c1cc2c(cc(-c3nnn[nH]3)c3nnnn32)s1` came in with a melting point of 267 to 269 °C. Consider `CCOC(=O)C1=C(N)NC2=C(C(=O)CCC2)C1c1cccc(C)n1` (configuration not stated), for which the melting point is > 260 °C.

With `Cc1cccc(-c2n[nH]cc2-c2ccc(F)c(-c3ccc(N4CCN(C)CC4)cn3)c2)n1`, the melting point came to 97 °C. Next, `COC(=O)c1c(O)c(-c2cccc(C(F)(F)F)c2)nn1C`: 101 to 103 °C; `CC(C)(C)OC(=O)NCCCn1c2c(c3ccc(NC(=O)CC(=O)O)cc3c1=O)C(=O)c1ccccc1-2`: 211 to 212 °C. Under `CC(C)c1ccc(-c2ccc(Sc3ccccc3)s2)cc1` stands 61 to 63 °C; under `O=C(O)Cc1ccc(NC(=O)C(COc2cccnc2)NS(=O)(=O)c2ccc(Br)cc2)cc1` (racemic), 205 to 207 °C. Under `Cc1ccccc1-c1cc(-c2ccc(F)cc2)c(C=C(Br)Br)c(C(C)C)n1` stands 108 to 110 °C; under `CCCCc1ccc(-c2ccc3c(c2)CC[C@H]2N(C)C(=O)CC[C@]32C)cc1`, 102 to 108 °C. In the case of `CCC12CC(Cl)C3C4CCC(=O)C=C4CCC3C1C(OC(C)=O)CC2=O` (configuration not stated), the melting point is 125 °C. Next, `CN=C(NC#N)NCCSCc1ncccc1O`: 146 to 148 °C. Next, `C=C(OCCCC)c1ccc(NC(C)=O)nc1`: 55 to 58 °C; `COc1cc(C(=O)NS(=O)(=O)c2ccccc2C)ccc1Cc1cn(C)c2ccc(CC(C)NC(=O)N(C)C)cc12` (configuration not stated): 125 to 135 °C; `O=C(O)c1cccc(NCc2cccs2)c1C(=O)O`: 223 to 225 °C. Next, `Cn1nc(-c2cc(C(=O)O)c(Cl)cc2Cl)c(Cl)c1OC(F)F`: 159 to 160 °C. In turn, `CCOC(=O)c1nc2cccnc2n(-c2ccc(Cl)cc2)c1=O` showed a melting point of 158 °C. Under `CCCCCCCCCC(=O)Nc1ccc(S(=O)(=O)Nc2nnc(S(N)(=O)=O)s2)cc1` stands 242 to 243 °C; under `Cn1ccn(Cc2ccc([N+](=O)[O-])cc2)c1=S`, 162 to 168 °C; under `Cc1cc2c(cc1-c1cc(C=C3SC(=O)NC3=O)ccc1OC(F)(F)F)C(C(C)C)=CCC2(C)C`, 179 °C. Next, `COc1cc(Cc2cnc(N)nc2N)cc(OC)c1-n1cccc1`: 220 °C; `O=C(O)c1cc(-n2c(-c3ccccc3)cc3c2Cc2ccccc2-3)ccc1O`: 201 to 205 °C. Next, `Nc1nc2c(s1)CCN(CC=Cc1ccccc1)CC2`: 120 to 124 °C; `CC(=O)Oc1cc(C(=O)Cc2ccccc2)cc([N+](=O)[O-])c1OC(C)=O`: 94 to 95 °C; `CC(=O)N(C)c1c(C(=O)c2ccccc2)[nH]c2cc(Cl)ccc12`: 232 to 235 °C. The compound `COC(=O)c1cccc(C(=O)Nc2cccc3cc(Br)cnc23)c1` gave a melting point of 157 °C.

Compound `COc1cc2nc(S(=O)Cc3cc(N(C)C)c(Cl)cn3)[nH]c2cc1OC` (configuration not stated) registered a melting point of 164 to 165 °C. Next, `CCCc1c(C(=O)NCc2ccc3c(Br)c(OCC#N)ccc3c2)cnn1-c1ccccc1`: 175 to 176 °C; `C#CCn1c(=O)n(CC=C)c(=O)n(-c2cc(N3C(=O)C4=C(CCCC4)C3=O)c(F)cc2Cl)c1=O`: 107 to 114 °C. Compound `COC(=O)[C@H](O)[C@@H](NS(=O)(=O)c1c2ccccc2cc2ccccc12)c1ccccc1` returned a melting point of 98 to 102 °C. `O=C1C(c2ccccc2)=C(c2cccs2)C(=O)N1c1ccc(Cl)cc1` returned a melting point of 176 to 177 °C.

Take `O=c1sc(CO)c(C(F)(F)F)n1CC=C(Cl)Cl`: the melting point is 81 °C. Next, `O=c1c2ccccc2n(CCc2ccccc2)c(=O)n1S(=O)(=O)c1ccc(Cl)cc1`: 200 to 202 °C; `CN=C(O)c1c(Cl)c(Cl)c(Sc2ccc(C)cc2)c(Cl)c1C(=O)O`: 209 to 216 °C; `O=C1c2ccccc2C(=O)N1CCC(=O)N(c1ccccc1)c1ccccc1`: 140 °C.

The compound `COc1cccc2c1CCCC2N` (configuration not stated) registered a melting point of 22 to 25 °C. Turning to `CC#CCOc1ccc(S(=O)(=O)N2CCOCC2C(=O)O)cc1` (configuration not stated), the melting point lay in the range of 40 to 42 °C. Under `CC(=O)N1C=CC(C(C)=O)(c2ccccc2)C=C1` stands 93 to 95 °C; under `Cc1ccc(S(=O)(=O)Oc2c(-c3ccc(S(C)(=O)=O)cc3)cnn(-c3cccc(Cl)c3)c2=O)cc1`, 198 to 200 °C; under `O=S(=O)(NC=NCCCOc1cccc(CN2CCCCC2)c1)c1ccc(Cl)cc1`, 75 to 79 °C. In the case of `COc1c(Nc2ncc(Cl)c(Nc3ccccc3S(=O)(=O)N(C)C)n2)ccc2c1CC(N1CCOCC1)CCC2` (configuration not stated), the melting point was in the range of 92 to 104 °C. Next, `CN(C)CCc1[nH]c2ccccc2c1CSc1ccc(Cl)cc1`: 115 to 117 °C. Next, `CCNC(=O)Nc1ccc(N(C)C)cc1C(=O)NCC1CCN(C(c2ccccc2)c2ccccc2)CC1`: 186 to 188 °C; `CC(C)CC(NC(=O)C(NC(=O)OCc1ccccc1)C(C)C)C(=O)NC(CCCCNC(=O)OCc1ccccc1)C(=O)Oc1cccc2ccccc12` (configuration not stated): 171 to 174 °C; `CCOC(=O)c1ccc(-c2cccc(O)c2)c(C(C)(C)C)c1`: 118 to 120 °C. Under `CCC(C)(N=NC(C)(CC)NC(=O)NNC(C)(C)C)NC(=O)NNC(C)(C)C` (configuration not stated) stands 155 to 160 °C. In turn, `COc1ccc(Cn2nnnc2C(=O)Nc2cc(Cl)cc(NC(=O)c3nnnn3Cc3ccc(OC)cc3)n2)cc1` displayed a melting point of 201 to 203 °C. The compound `CCn1c2ccccc2n2c(=O)c(C(=O)N3CCOCC3)cnc12` displayed a melting point of 200 to 202 °C. Under `COC(=O)CCc1ccc2c(c1)nc(N)c1ncn(CC(C)(C)O)c12` stands 201 to 205 °C; under `Nc1ccc(C(=O)N2CC3CC(CN(Cc4ccc(Cl)cc4)C3)C2)cc1`, 213 °C; under `CSCc1cc([N+](=O)[O-])ccc1N1C(=O)c2ccc(Cl)cc2C1=O`, 112 to 115 °C.

Regarding `COc1ccc(C=O)c(Br)c1Oc1ccc([N+](=O)[O-])cc1`, the melting point fell in the range of 115 to 117 °C. For the compound `CCOC(=O)c1c(Nc2ccccc2)nc2ccc(Br)cc2c1Cl`, the melting point lay within 171 to 172 °C. Next, `Cc1ccc(-c2n[nH]cc2C=O)s1`: 97 to 99 °C. Under `O=C(O)c1cn(-c2ccc(F)c(O)c2)c2c(Cl)c(F)c(F)cc2c1=O` stands > 280 °C; under `Cc1c(CC=CNC(=O)Nc2ccccc2)[nH]c(=O)c2c1ccc1nc(Nc3c(Cl)cccc3Cl)n(C)c12`, > 290 °C; under `CCOC(=O)COc1c2ccccc2cc2c1c(C(=O)C(N)=O)c(CC)n2Cc1ccccc1`, 130 to 131 °C. Next, `Cc1csc(N=CN(C)C)n1`: 54 to 56 °C.

`COc1ccc2nn(-c3cc(OCCCO)cc(C(C)(C)C)c3O)nc2c1` gave a melting point of 128 to 130 °C. In turn, `NC1C(=O)Nc2ccccc2SC1Cc1ccccc1` (configuration not stated) displayed a melting point of 223 to 224 °C.

Consider `C=Cc1nc(C#N)c(C#N)n1CC`, for which the melting point fell in the range of 66 to 70 °C. Next, `COc1ccc(C(=O)c2ccc(OCc3nc(-c4ccccc4)oc3C)cc2)c(OC(C)C(=O)O)c1` (configuration not stated): 100 to 102 °C; `CCOC(=O)c1conc1-c1ccc(Cl)c(F)c1`: 77 to 78 °C. Under `O=C(Nc1ccc2c(c1)CCC2)c1ccccc1C(c1ccc(O)cc1)c1ccc(O)cc1` stands 220 to 223 °C.

In turn, `CC(C)N(C(=O)c1nn(-c2ccc(F)cc2F)c2c1C1CCC2C1)C(C)C` (configuration not stated) gave a melting point of 107 to 109 °C. Next, `O=C(O)Cn1c(Cc2ccccc2)ccc1-c1ccccc1`: 137 to 139 °C; `O=C(Nc1cccc(C(F)(F)F)c1)c1cccc(Oc2cccc(C(F)(F)F)c2)n1`: 93.1 to 93.7 °C.
